Measurements from patent publication US8895520B2, “Method for treating a human patent suffering from Myeloid Neoplasias using 5-aminoimidazole-4-carboxamide” (Universite Nice Sophia Antipolis, priority 2011, dated 2014).

Experiments:
AZA-R SKM1 cells [1] = assay: Cathepsin B activity assay in AZA-R SKM1 cells; format: cell-based, human
Method: (§1) For this experiment cells were incubated for increasing times with 1 μM AZA. Cell extracts were prepared and Cathepsin B activity determined in quadruplicatesusing Z-RR-AMC as substrates. […] In this experiment cells were incubated for 24 h with 1 μM Azacitidine or 1 mM ACA. Cell extracts were prepared and Cathepsin B activity was determined in quadruplicates using Z-RR-AMC as substrate. For these Cathepsin B assays, 10^6 cells/mL were incubated for different times at 37° C. with 1 μM Azacitine. After stimulation, cells were lysed for 30 min at 4° C. Cellular extracts were incubated in 96-well plates with […] (Cathepsin B) as substrate. This experiment was performed in quadruplicates and repeated at least three times.

[2] = system: bone marrow cells of 8 AZA-resistant patients; assay: XTT cell metabolism assay on bone marrow cells of AZA-resistant patients; format: cell-based, human; details: 1 mM Acadesine
Method: For this experiment, bone marrow cells of 8 AZA-resistant patients were treated with 1 μM Azacitidine or 1 mM Acadesine. Cell metabolism was assessed using the XTT assay. Results represent the mean+/−SEM of three independent experiments achieved in quadruplicates.
(§2) In the following examples, bone marrow samples were collected from 15 patients treated by Azacitidine. […] The diagnosis of MDS or AML was based on standard WHO criteria (Vardiman et al., Blood 2009). Patients were to receive Azacitidine at the FDA/EMEA approved schedule (75 mg/m^2/d, 7 d/4 weeks). Patients having received one or more than one cycle of Azacitidine and who had bone marrow evaluation after at least four cycles, or who died or progressed before completion of four cycles were considered evaluable (the last two groups were considered as treatment failures). Responses were scored according to IWG 2006 criteria for MDS and to Cheson et al. (JCO 2003) for AML.
(§3) Acadesine efficiency was next investigated on fifteen primary cell samples from MDS or AML patients treated or not by AZA. Samples from seven Azacitidine sensitive patients (FIG. 12) and eight samples from Azacitidine resistant patients were included in this experiment and analyzed by the XTT assay (FIG. 13). As previously described for AZA-R SKM1 cells, Acadesine was more efficient to kill cells from Azacitidine resistant patients.

AZA-R SKM1 cells [3] = assay: Caspase 3 / caspase 9 activity assay in AZA-R SKM1 cells; format: cell-based, human
Method: (§4) FIG. 1 illustrates AZA-induced apoptosis in AZA-SKM1 cells as assessed by caspase 3 assay. In this figure, cells were incubated for different times with 1 μM Azacitidine. Caspase activities were determined in quadruplicates using 0.2 mM Ac-DEVD-AMC as substrate.
(§5) FIG. 2 illustrates AZA-induced apoptosis in AZA-SKM1 cells as assessed by caspase 9 assay. In this figure, cells were incubated for different times with 1 μM Azacitidine. Caspase activities were determined in quadruplicates using 0.2 mM Ac-LEHD-AMC as substrate.
(§6) In this experiment, cells were incubated for 24 h with 1 μM Azacitidine or 1 mM ACA. Cell extracts were then prepared and caspase activities were determined in quadruplicates using 0.2 mM Ac-DEVD-AMC as substrate.
(§7) For these caspase assays, 10^6 cells/mL were incubated for different times at 37° C. with 1 μM Azacitidine. After stimulation, cells were lysed for 30 min at 4° C. Cellular extracts were incubated in 96-well plates with either Ac-DEVD-AMC (caspase 3) or Ac-LEHD-AMC (caspase 9) as substrates. Each experiment was performed in quadruplicates and repeated at least three times.

AZA-S SKM1 cells [4] = assay: Caspase 3 / caspase 9 activity assay in AZA-S SKM1 cells; format: cell-based, human
Method: as §4, §5, §6, §7

AZA-S SKM1 cells [5] = assay: XTT cell metabolism assay in AZA-S SKM1 cells; format: cell-based, human; details: for cell metabolism (XTT) / inhibitory effect on cell metabolism in presence of Z-VAD-fmk: 24 h; for inhibitory effect on cell metabolism in presence of Z-VAD-fmk: 50 μM Z-VAD-fmk
Method: (§8) FIGS. 6 and 7 illustrate respectively the efficiency of acadesine in SKM1-S and SKM1-R cells. In FIG. 6, AZA-S SKM1 cells were incubated for 24 h with increased doses of ACA (acadesine). In FIG. 7, AZA-R SKM1 cells were incubated for 24 h with increased doses of ACA. Cell metabolism was then assessed by using the XTT assay in both assays. Results represent the mean+/−SEM of three independent experiments made in quadruplicates.
FIGS. 10 and 11 illustrate the efficacy of acadesine in AZA-S and AZA-R cells. […] For this experiment, AZA-S SKM1 cells were incubated for 24 h with 1 μM Azacitidine or 1 mM Acadesine in either the presence or the absence of 50 μM Z-VAD-fmk. Cell metabolism was assessed using the XTT assay. Results represent the mean+/−SEM of three independent experiments achieved in quadruplicates. […] For this experiment, AZA-R SKM1 cells were incubated for 24 h with 1 μM Azacitidine or 1 mM Acadesine in either the presence or the absence of 50 μM Z-VAD-fmk. Cell metabolism was assessed using the XTT assay. Results represent the mean+/−SEM of three independent experiments achieved in quadruplicates.
For the cell metabolism assessment, 15×10^3 cells were incubated in a 96-well plate for different times with various concentrations of Azacitidine in a final volume of 100 μL. After 16, 24 or 48 h, 50 μL of XTT reagent was added to each well. The absorbance of the formazan product, reflecting cell metabolism, was measured at […]. Each assay was performed in quadruplicate.
The cell metabolism assessment was made in an identical manner as described in example 3.

[6] = system: AZA-resistant patient bone marrow cells; assay: LC3 I / LC3 II western blot on AZA-resistant patient bone marrow cells; format: cell-based, human; details: one Azacitidine resistant patient, 1 mM Acadesine, 24 h
Method: In this experiment LC3 I and LC3 II expression was assessed by Western-Blot on cell extracts prepared from AZA-resistant patient bone marrow cells incubated for 24 h with 1 mM Acadesine.
as §3

[7] = system: bone marrow cells of 7 AZA-sensitive patients; assay: XTT cell metabolism assay on bone marrow cells of AZA-sensitive patients; format: cell-based, human; details: bone marrow cells of AZA-sensitive patients (n=7), 1 mM Acadesine
Method: For this experiment, bone marrow cells of 7 AZA-sensitive patients were treated with 1 μM Azacitidine or 1 mM Acadesine. Cell metabolism was assessed using the XTT assay. Results represent the mean+/−SEM of three independent experiments achieved in quadruplicates.
as §2, §3

AZA-R SKM1 cells [8] = assay: cells; format: cell-based; details: Homo sapiens
Method: as §8
FIGS. 10 and 11 illustrate the efficacy of acadesine in AZA-S and AZA-R cells. […] For this experiment, AZA-S SKM1 cells were incubated for 24 h with 1 μM Azacitidine or 1 mM Acadesine in either the presence or the absence of 50 μM Z-VAD-fmk. Cell metabolism was assessed using the XTT assay. Results represent the mean+/−SEM of three independent experiments achieved in quadruplicates. […] For this experiment, AZA-R SKM1 cells were incubated for 24 h with 1 μM Azacitidine or 1 mM Acadesine in either the presence or the absence of 50 μM Z-VAD-fmk. Cell metabolism was assessed using the XTT assay. Results represent the mean+/−SEM of three independent experiments achieved in quadruplicates. […]
For the cell metabolism assessment, 15×10^3 cells were incubated in a 96-well plate for different times with various concentrations of Azacitidine in a final volume of 100 μL. […] The absorbance of the formazan product, reflecting cell metabolism, was measured at 490 nM. […]

AZA-R SKM1 cells [9] = assay: PARP cleavage by western blot in AZA-R SKM1 cells; format: cell-based, human; details: 1 μM Azacitidine, 16 h
Method: (§9) In this experiment, PARP cleavage was assessed by western-blot on cell extracts prepared from AZA-S and AZA-R cells incubated for 16 h with 1 μM Azacitidine. For the Western Blot analysis, cells were first stimulated by 1 μM Azacitidine for the indicated times, then cells were harvested and lysed in buffer containing 1% Triton X-100 and supplemented with protease and phosphatase inhibitors (Roche Diagnostics) as previously described. Lysates were pelleted, and 50 μg of protein were analyzed by SDS-PAGE.

AZA-S SKM1 cells [10] = assay: Autophagy western blot (LC3-I/LC3-II, P-S6) in AZA-S SKM1 cells; format: cell-based, human; details: 1 μM AZA
Method: (§10) FIG. 4 illustrates increased basal autophagy and decreased AZA-mediated autophagy in AZA-R cells. In this experiment, cells were incubated for increasing times with 1 μM AZA. LC3-I and LC3-II, S6 ribosomal protein (P-S6), and its phosphorylated form were visualized by western blot.
as §9, with “For” for “In this experiment, PARP cleavage was assessed by western-blot on cell extracts prepared from AZA-S and AZA-R cells incubated for 16 h with 1 μM Azacitidine. For”

AZA-S SKM1 cells [11] = assay: Cathepsin B activity assay in AZA-S SKM1 cells; format: cell-based, human; details: Azacitidine
Method: as §1

[12] = system: high-risk Myelodysplasic syndrome (MDS) or acute myeloid leukemia (AML) patients; details: cited from earlier work
AZA-R SKM1 cells [13] = assay: Autophagy western blot (LC3-I/LC3-II, P-S6) in AZA-R SKM1 cells; format: cell-based, human; details: 1 μM AZA
Method: as §10
as §9, with “For” for “In this experiment, PARP cleavage was assessed by western-blot on cell extracts prepared from AZA-S and AZA-R cells incubated for 16 h with 1 μM Azacitidine. For”

NC(=O)c1ncn([C@@H]2O[C@H](CO)[C@@H](O)[C@H]2O)c1N [Acadesine, acadesine]
Cathepsin B activity (AZA-R SKM1 cells [1]; 1 mM ACA, 24 h): increase of Cathepsin B activity | cell metabolism (XTT) [2]: strongly inhibits cell metabolism | apoptosis (caspase activity, Ac-DEVD-AMC) (AZA-R SKM1 cells [3]; 1 mM ACA, 24 h): does not induce apoptosis | apoptosis (caspase activity, Ac-DEVD-AMC) (AZA-S SKM1 cells [4]; 1 mM ACA, 24 h): does not induce apoptosis | cell metabolism (XTT) (AZA-S SKM1 cells [5]; 1 mM Acadesine): drastically inhibited cell metabolism | inhibitory effect on cell metabolism in presence of Z-VAD-fmk (AZA-S SKM1 cells [5]; 1 mM Acadesine): independently of caspases | IC50 (AZA-S SKM1 cells [5]; Homo sapiens, SKM-1, 24 h, XTT assay, read-out: half-maximal inhibition of cell metabolism): 250 µM | induction of autophagy (conversion of LC3-I into LC3-II) [6]: induction of autophagy by Acadesine was confirmed | cell metabolism (XTT) [7]: inhibits cell metabolism | cytotoxicity at 1000 µM (AZA-R SKM1 cells [8]; SKM-1, 24 h, read-out: reduction of cell viability): 60% | IC50 (AZA-R SKM1 cells [8]; SKM-1, AZA-R SKM1 cells, 24 h, XTT assay, read-out: half-maximal inhibition of cell metabolism): 250 µM

Nc1ncn([C@@H]2O[C@H](CO)[C@@H](O)[C@H]2O)c(=O)n1 [Azacitidine]
cleavage of PARP (western blot) (AZA-R SKM1 cells [9]): no AZA-mediated cleavage of PARP was detected | Cathepsin B activity (AZA-R SKM1 cells [1]; 1 μM AZA, increasing times): increased | caspase 3 activation (hydrolysis of Ac-DEVD-AMC) (AZA-R SKM1 cells [3]; 1 μM Azacitidine): no caspase activities was induced | caspase 9 activation (hydrolysis of LEHD-AMC) (AZA-R SKM1 cells [3]; 1 μM Azacitidine): no caspase activities was induced | caspase 3 activity (Ac-DEVD-AMC) (AZA-R SKM1 cells [3]; 1 μM Azacitidine, 24 h): no increase | caspase 3 activation (hydrolysis of Ac-DEVD-AMC) (AZA-S SKM1 cells [4]; 1 μM Azacitidine, 8-16 h): induced | caspase 9 activation (hydrolysis of LEHD-AMC) (AZA-S SKM1 cells [4]; 1 μM Azacitidine, 8-16 h): induced | caspase 3 activity (Ac-DEVD-AMC) (AZA-S SKM1 cells [4]; 1 μM Azacitidine, 24 h): induced caspase 3 activity | cell metabolism (XTT) (AZA-S SKM1 cells [5]; 1 μM Azacitidine): efficiently reduced cell metabolism | inhibitory effect on cell metabolism in presence of Z-VAD-fmk (AZA-S SKM1 cells [5]; 1 μM Azacitidine): reverted by Z-VAD-fmk | ribosomal protein S6 phosphorylation (index of mTOR inhibition) (AZA-S SKM1 cells [10]): inhibition of ribosomal protein S6 phosphorylation | LC3-II accumulation (autophagy) (AZA-S SKM1 cells [10]; increasing times): time-dependent accumulation of LC3-II | Cathepsin B activity (AZA-S SKM1 cells [11]): induces | proportion of patients refractory [12]: approximately 40% | ribosomal protein S6 phosphorylation (index of mTOR inhibition) (AZA-R SKM1 cells [13]): inhibition of ribosomal protein S6 phosphorylation | LC3-II accumulation (autophagy) (AZA-R SKM1 cells [13]; increasing times): not further stimulated
